Data: US5885972A, “L-pyranosyl nucleosides” (Genencor International, Inc., priority 1996, dated 1999)
Values after ≈ are worked out from the molar mass of the structure shown. Like-named read-outs stand apart in the source and are kept apart here.

What was measured:
[1] = In vitro survival of control bone marrow cells exposed to compound (Table I); type: cell-based; details: human, 10 μg/ml
From the text: (§1) In vitro activity against certain human tumor cell lines. CELL LINES: Eight different established human cell lines (CALU (lung), COLO320 (colon), H578St (breast), HT-29 (colon), MCF-7 (breast), OM-1 (colon), SKLU (lung), and SKMES (lung) and two control cell lines (bone marrow cell lines and/or fibroblasts) were utilized. All cell lines were obtained from the Tumor Cloning Laboratory, Institute for Drug Development, Cancer Therapy and Research Center, San Antonio, Tex. All cell lines grew as monolayers in the appropriate culture medium supplemented with heat-inactivated calf serum. All reagents were obtained from Grand Island Biological Co., Grand Island, N.Y.
IN VITRO EXPOSURE OF TUMOR CELLS TO COMPOUNDS: Stock solutions of intravenous (iv) formulations of certain of the compounds of the present invention (as shown in Table I below), as well as intravenous formulations of 5-FU (control) were used. The iv formulations of the compounds of the present invention were prepared with sterile buffered saline and stored at -70° C. until required for testing.
(§2) Following trypsinization, tumor cells were suspended in tissue culture medium and exposed to the antitumor agents continuously at three different concentrations: 10, 1 and 0.1 μg/ml.
RADIOMETRIC MEASUREMENT OF GROWTH INHIBITION: Growth inhibition was assessed with the BACTEC System 460 (Johnston Laboratories, Towson, Md.) after addition of the antitumor agent to the cells in the respective growth medium containing ^14 C-glucose at a final concentration of 2 μCi/ml. (See generally, C. Arteaga, et al., A Radiometric Method for Evaluation of Chemotherapy Sensitivity: Results of Screening a Panel of Human Breast Cancer Cell Lines, Cancer Research, 47, 6248-6253, (1987).)
(§3) Two mls of the tumor cell suspension containing radioactive glucose were seeded into sterile, disposable 15 ml vials by injection through self-sealing rubber-aluminum caps. […] The seeded vials were then incubated at 37° C. Measurement of the release of ^14 CO2 resulting from the metabolism of ^14 C-glucose were performed on days 6, 9, 12, and 15 in the BACTEC instrument. This instrument flushes the ^14 CO2 containing air out of the vials into an ionization chamber that converts dpm to growth index values. Chemotherapy sensitivity was calculated by comparing the growth index values of drug-treated vials to that observed in control vials. Each data point represents triplicate values.
(§4) All compounds were compared on an equimilimolar level.
The data presented in Table I are compared to results achieved with 5-FU as the control. All compounds were dosed on an equimilimolar basis. Inhibitory concentration (IC 50) is defined as the concentration required to kill 50% of the untreated cancer cells. Although the IC 50 of certain of the compounds listed in Table I may be higher than that for 5-FU (the control), the compounds of the present invention are generally less toxic to normal cells such as bone marrow or fibroblasts. […] Additionally, because of their lower toxicity to normal cells, it is anticipated that the present compounds may be dosed at a higher rate to selectively increase toxicity to the cancer cells. In this regard, a therapeutic ratio for a given compound is typically determined by the following calculation. [formula] A therapeutic ratio of <80% is considered active. In Vivo Evaluation

[2] = system: HS578T; test: In vitro radiometric (BACTEC) growth inhibition of human tumor cell line HS578T (breast); type: cell-based; details: Hs-578T; for viability at 10 µg/mL: 10 μg/ml, read-out: % survival tumor
From the text: as §1
(§5) The iv formulations of the compounds of the present invention were prepared with sterile buffered saline and stored at -70° C. until required for testing.
as §2
(§6) RADIOMETRIC MEASUREMENT OF GROWTH INHIBITION: Growth inhibition was assessed with the BACTEC System 460 (Johnston Laboratories, Towson, Md.) after addition of the antitumor agent to the cells in the respective growth medium containing ^14 C-glucose at a final concentration of 2 μCi/ml.
as §3, with “Chemotherapy sensitivity was calculated by comparing the growth index values of drug-treated vials to that observed in control vials.” left out
as §4
(§7) All compounds were dosed on an equimilimolar basis. […] [formula] A therapeutic ratio of <80% is considered active. In Vivo Evaluation

[3] = system: SKMES; test: In vitro radiometric (BACTEC) growth inhibition of human tumor cell line SKMES (lung); type: cell-based
From the text: as §1, §5, §2, §6
as §3, with “Chemotherapy sensitivity was calculated by comparing the growth index values of drug-treated vials to that observed in control vials.” left out
as §4, §7

[4] = system: SKLU; test: In vitro radiometric (BACTEC) growth inhibition of human tumor cell line SKLU (lung); type: cell-based; details: for viability at 10 µg/mL: 10 μg/ml
From the text: as §1, §5, §2, §6
as §3, with “Chemotherapy sensitivity was calculated by comparing the growth index values of drug-treated vials to that observed in control vials.” left out
as §4, §7

[5] = system: MCF-7; test: In vitro radiometric (BACTEC) growth inhibition of human tumor cell line MCF-7 (breast); type: cell-based; details: for viability at 10 µg/mL: MCF7, MCF-7, 10 μg/ml
From the text: as §1, §5, §2, §6
as §3, with “Chemotherapy sensitivity was calculated by comparing the growth index values of drug-treated vials to that observed in control vials.” left out
as §4, §7

[6] = system: OM-1; test: In vitro radiometric (BACTEC) growth inhibition of human tumor cell line OM-1 (colon); type: cell-based; details: for viability at 10 µg/mL: OM-1, 10 μg/ml
From the text: as §1, §5, §2, §6
as §3, with “Chemotherapy sensitivity was calculated by comparing the growth index values of drug-treated vials to that observed in control vials.” left out
as §4, §7

[7] = system: HT-29; test: In vitro radiometric (BACTEC) growth inhibition of human tumor cell line HT-29 (colon); type: cell-based; details: for viability at 10 µg/mL: 10 μg/ml
From the text: as §1, §5, §2, §6
as §3, with “Chemotherapy sensitivity was calculated by comparing the growth index values of drug-treated vials to that observed in control vials.” left out
as §4, §7

[8] = system: CALU; test: In vitro radiometric (BACTEC) growth inhibition of human tumor cell line CALU (lung); type: cell-based
From the text: as §1, with “N.Y. […]” for “N.Y.”
(§8) RADIOMETRIC MEASUREMENT OF GROWTH INHIBITION: Growth inhibition was assessed with the BACTEC System 460 (Johnston Laboratories, Towson, Md.) after addition of the antitumor agent to the cells in the respective growth medium containing ^14 C-glucose at a final concentration of 2 μCi/ml. […]
(§9) Two mls of the tumor cell suspension containing radioactive glucose were seeded into sterile, disposable 15 ml vials by injection through self-sealing rubber-aluminum caps. […] Chemotherapy sensitivity was calculated by comparing the growth index values of drug-treated vials to that observed in control vials. […]

[9] = system: COLO320; test: In vitro radiometric (BACTEC) growth inhibition of human tumor cell line COLO320 (colon); type: cell-based
From the text: as §1, with “N.Y. […]” for “N.Y.”
as §8, §9

[10] = system: HS578T; test: In vitro radiometric (BACTEC) growth inhibition of human tumor cell line HS578T (breast); type: cell-based; details: Hs-578T, 6 μg/ml, read-out: % survival tumor
[11] = background statement on marketed drug; cited from earlier work
[12] = HS578T, continuous exposure, read-out: IC 50
[13] = SKLU, read-out: % survival tumor
[14] = SKLU, continuous exposure, read-out: IC 50
[15] = MCF7, MCF-7, continuous exposure, read-out: IC 50
[16] = OM-1, continuous exposure, read-out: IC 50
[17] = continuous exposure, read-out: IC 50
[18] = 6 μg/ml, read-out: % survival tumor

Which results are given for O=c1ccn([C@H]2OC[C@H](O)[C@H](O)[C@@H]2O)c(=O)[nH]1 [(3), β-L-ribopyranosyluracil]?
viability [1]: 96%; viability at 10 µg/mL ([2]; HS578T): 86.7%; IC50 [2, 12]: > 10 µg/mL

Which results are given for O=c1[nH]c(=O)n([C@H]2OC[C@H](O)[C@H](O)[C@@H]2O)cc1F [(5), β-L-ribopyranosyl-5-fluorouracil]?
viability [1]: 116%; viability at 10 µg/mL ([3]; SKMES, 10 μg/ml, read-out: % survival tumor): 68.2%; IC50 ([3]; SKMES, continuous exposure, read-out: IC 50): > 10 µg/mL; viability at 10 µg/mL [4, 13]: 90.1%; IC50 [4, 14]: > 10 µg/mL; viability at 10 µg/mL ([5]; read-out: % survival tumor): 76.2%; IC50 [5, 15]: > 10 µg/mL

What does the source list for Nc1ccn([C@H]2OC[C@H](O)[C@H](O)[C@@H]2O)c(=O)n1 [(8), β-L-ribopyranosylcytosine]?
viability [1]: 93.1%; viability at 10 µg/mL ([6]; read-out: % survival tumor): 78.9%; IC50 [6, 16]: > 10 µg/mL; viability at 10 µg/mL ([2]; HS578T): 89.2%; IC50 [2, 12]: > 10 µg/mL; viability at 10 µg/mL ([5]; read-out: % survival tumor): 72.2%; IC50 [5, 15]: > 10 µg/mL

For Nc1ncnc2c1ncn2[C@H]1OC[C@H](O)[C@H](O)[C@@H]1O [(11)], which viability [1] is on record?
The viability was 94.1%.

What about the viability at 10 µg/mL ([6]; read-out: % survival tumor) of the same compound?
The viability at 10 µg/mL was 41.6%.

And the IC50 [6, 16]?
Its IC50 is 8.3 µg/mL (≈ 31.1 µM).

And the viability at 10 µg/mL ([2]; HS578T)?
The viability at 10 µg/mL was 43.6%.

And the IC50 [2, 12]?
The IC50 was 7.8 µg/mL (≈ 29.2 µM).

With Nc1nc2c(ncn2[C@H]2OC[C@H](O)[C@H](O)[C@@H]2O)c(=O)[nH]1 [(14), β-L-ribopyranosylguanine] as the compound, how does the viability [1] read?
Its viability is 106%.

And the viability at 10 µg/mL ([7]; read-out: % survival tumor)?
Its viability at 10 µg/mL is 94.8%.

And the IC50 [7, 17]?
Its IC50 is greater than 10 µg/mL.

With O=c1[nH]c(=O)n([C@@H]2OC[C@H](O)[C@H](O)[C@@H]2O)cc1F [(18), α-L-ribopyranosyl-5-fluorouracil] as the compound, how does the viability [1] read?
The viability was 166%.

What about the viability at 10 µg/mL [4, 13] of the same compound?
Its viability at 10 µg/mL is 78.4%.

And the IC50 [4, 14]?
The IC50 was 57.1 µg/mL (≈ 218 µM).

What about the viability at 10 µg/mL ([7]; read-out: % survival tumor) of the same compound?
The viability at 10 µg/mL was 83.1%.

What about the IC50 [7, 17] of the same compound?
The IC50 was 119 µg/mL (≈ 454 µM).

And the viability at 10 µg/mL ([6]; read-out: % survival tumor)?
Its viability at 10 µg/mL is 82.5%.

What about the IC50 [6, 16] of the same compound?
The IC50 was 65.1 µg/mL (≈ 248 µM).

And the viability at 10 µg/mL ([2]; HS578T)?
Its viability at 10 µg/mL is 83.6%.

What about the IC50 [2, 12] of the same compound?
The IC50 was 50.8 µg/mL (≈ 194 µM).

For O=c1[nH]cc(F)c(=O)[nH]1 [Compound 5-FU, 5-fluorouracil, reference compound], which viability at 6 µg/mL [8, 18] is on record?
Its viability at 6 µg/mL is 9.9%.

What about the IC50 ([8]; continuous exposure) of the same compound?
The IC50 was less than 0.6 µg/mL.

And the IC50 [3]?
The IC50 was less than 0.6 µg/mL.

What about the viability at 6 µg/mL ([3]; SKMES, 6 μg/ml, read-out: % survival tumor) of the same compound?
Its viability at 6 µg/mL is 29.1%.

And the IC50 [4]?
The IC50 was 1.05 µg/mL (≈ 8.07 µM).

What about the viability at 6 µg/mL ([4]; SKLU, 6 μg/ml, read-out: % survival tumor) of the same compound?
Its viability at 6 µg/mL is 24.7%.

What about the viability at 6 µg/mL ([9]; COLO 320, 6 μg/ml, read-out: % survival tumor) of the same compound?
The viability at 6 µg/mL was 1%.

What about the IC50 ([9]; COLO 320, continuous exposure) of the same compound?
Its IC50 is less than 0.6 µg/mL.

What about the IC50 [7] of the same compound?
Its IC50 is 0.61 µg/mL (≈ 4.69 µM).

What about the viability at 6 µg/mL [7, 18] of the same compound?
Its viability at 6 µg/mL is 5.7%.

What about the IC50 [6] of the same compound?
Its IC50 is 1.47 µg/mL (≈ 11.3 µM).

And the viability at 6 µg/mL ([6]; OM-1, 6 μg/ml, read-out: % survival tumor)?
The viability at 6 µg/mL was 20.1%.

And the IC50 [2]?
Its IC50 is less than 0.6 µg/mL.

And the IC50 ([5]; MCF7)?
Its IC50 is less than 0.6 µg/mL.

And the viability at 6 µg/mL ([5]; MCF7, MCF-7, 6 μg/ml, read-out: % survival tumor)?
The viability at 6 µg/mL was 4.2%.

What about the viability at 6 µg/mL [10] of the same compound?
The viability at 6 µg/mL was 12.5%.

And the side effects [11]?
Its side effects is “GI side effects like nausea, vomiting and diarrhea, leukopenia, thrombocytopenia, alopecia”.
